Where two headings read alike, the source gives them in different places.
Key:
Human primary T cells = experiment: In vitro antigen-independent expansion of T cells transduced with constitutive or ACZ-regulated mbIL15 constructs (cell numbers by flow cytometry); format: cell-based
Experimental: T cells were thawed, cells were washed and counted. T cells were mixed with CD3/CD28 beads (Invitrogen cat#11141D) at 3:1 bead to T cell ratio. 5×10^5 cells/well were added to 24-well plates in 500 μL media. Cells were activated for 24 hrs. Next day, lentivirus was thawed and added to each well at different volumes. After 24 hrs, 500 μL of fresh media was added to wells, and cells were expanded by adding equal volume of fresh media every 2-3 days to keep cell density at 0.5-1×10^6/mL. Cells were analyzed by flow cytometry to confirm expression on day 5 or 6. Cells were expanded for 9-10 days.
After T cell transduction and expansion, CD3/CD28 beads were removed using magnets, cells were washed twice, resuspended in fresh media and counted. Cells were plated in 12-well plates at 1×10^6 in 2 mL. One well of untransduced cells was cultured in the presence of 2 ng/mL IL15 as a control. T cells expressing regulated constructs were cultured in the absence or presence of acetazolamide (ACZ, 30, 10, 3, 1, 0.3 μM). Cell numbers were monitored by flow cytometry every 3-4 days and cells were cultured for 10-12 days. At each time point 100 μL of cells were collected from wells and analyzed by flow cytometry. Cells were split as needed. Cell cultures were maintained in 12-well plates by taking a portion and adding media in a new plate. Volumes for each well were recorded before and after split to calculate final volume in cell number assessment. IL15 or ACZ were replenished at final concentration of the fresh media added during each split.
T cell numbers were determined by flow cytometry. Empty vector (EV) transduced cell numbers decreased to background levels between 3-5 days in the absence of IL15, and cells expanded 11-fold in the presence of 2 ng/mL exogenous IL15 (FIG. 3A). T cells expressing constitutive IL15-292 and IL15-294 expanded between 18 and 21-fold, respectively, in 10 days (FIG. 3A). In T cells expressing IL15-293, maximum expansion was 9.5-11× with 30, 10, 3 μM (FIG. 3B). At the lowest concentration tested (0.3 μM), cells expanded 3.3×. These cells survived longer (0.8×) compared to EV cells without drug treatment […]. In T cells expressing IL15-295, maximum expansion was 8.2-10× with 30, 10, 3 μM and cells expanded 4.9× at the lowest concentration (0.3 μM) tested (FIG. 3C). Without drug treatment, these cells survived (0.9×) longer compared to EV.

T cells [1] = experiment: Acetazolamide dose response of IL15 expression on transduced T cells (flow cytometry); format: cell-based, human; conditions: ACZ 24 hrs starting at 100 μM, diluted 3-fold for 9 points
Experimental: Cells were treated with different concentrations of ACZ (ligand) starting at 100 μM for 24 hrs. Graphs show % IL15+ T Cells (FIG. 4A) and mean fluorescence intensity (MFI) of IL15 (FIG. 4B).
The effect of different concentrations of ACZ on IL15 expression was tested. T cells were treated with ACZ for 24 hrs starting at 100 μM, diluted 3-fold for 9 points. Both % IL15+ T Cells (FIG. 4A) and IL15 Mean Fluorescence Intensity (MFI) (FIG. 4B) analysis indicated similar dose curves for OT-IL15-293 and OT-IL15-295. There was 4-5-fold increase in expression (both % IL15+ T cells and IL15 MFI) between highest and lowest concentrations of ACZ.

T cells [2] = experiment: IL15 expression on T cells in vivo on day 25 (IL15Ra-Fc staining, flow cytometry); set-up: species or system NSG mice; conditions: day 25, treated with ACZ 200 mg/kg daily PO
Experimental: Human primary T cells capable of expressing constitutive mbIL15 or ACZ-regulated mbIL15 were prepared in accordance with methods described in Example 1 above. After T cell transduction and expansion, CD3/CD28 beads were removed using magnets, cells were washed twice, resuspended in fresh media and counted. T cells were mixed with expanded NK cells and each animal received 5×10^6 T cells and 2×10^6 expanded NK cells. Cells were infused by intravenous injections into NSG mice. Animals infused with T cells expressing regulated constructs were dosed daily with 200 mg/kg ACZ or vehicle by PO injections. Every 3-4 days, 50 μL blood was analyzed by flow cytometry for presence of T cells and NK cells using antibodies against mouse and human CD45, CD3 and CD56. IL15 expression on day 25 was analyzed using IL15Ra-Fc and fluorochrome conjugated anti-human IgG antibody.
IL15 expression on T cells in vivo on day 25 was analyzed by flow cytometry (FIG. 5C). T cells transduced with constitutive constructs IL15-292 and IL15-294 expressed high levels of IL15 (82% and 61%). IL15 expression was <1.5% in vehicle-treated IL15-293 and IL15-295 as well as EV groups. IL15 expression levels were 11% and 9% on T cells transduced with IL15-293 and IL15-295 in groups treated with ACZ.

TIL = experiment: Expression of regulated mbIL15 in TIL in response to ACZ (anti-IL15 and IL15Ra-Fc co-staining); format: cell-based, human
Experimental: HEK293T cells were seeded on collagen coated tissue culture plates until 70% confluent. Cells were transfected with pELNS transfer vector carrying constitutive (IL15-292) or regulated (IL15-293) IL15 constructs, as well as packaging plasmids (pRSV.REV, pMDLg/pRRE and OT-BaEVg-002 (SEQ ID NO: 51)) using Lipofectamine 3000 transfection reagent in Opti-MEM media. Media was replaced 6-8 hrs post-transfection with serum-free media. Supernatants containing virus were harvested 24 hr post-transfection, fresh media was added, and supernatants were harvested again at 48 hr post-transfection. Viral supernatants were filtered to remove debris and concentrated by low speed ultracentrifugation. Virus were resuspended, aliquoted and stored at −80 C freezer.
96-well non-coated tissue culture plates were incubated with 35 μg per mL RetroNectin (Takara Bio) in PBS for 2 h at 37° C. or overnight at 4° C. RetroNectin was removed and the plates washed with PBS. BaEV-pseudotyped lentivirus, prepared as described above, and TIL cell media, at a total volume of 50 μL per well, were added to each well and the plates were centrifuged at low speed for 2 hours at 32° C. TIL generated from a head and neck tumor sample prepared as described in Example 5 were engineered after 3 weeks in the pre-REP culture. TIL were activated for 24 hrs in 24-well plates with anti-CD3/CD28 beads at 3:1 bead to T cell ratio. Activated TIL were placed in virus-coated plates and centrifuged at 800 g for 2 hrs and incubated at 37° C. for 4 days in culture media. One well of cells was processed similarly without virus addition and used as negative control (“untransduced”). Cells that were transduced with the regulated mbIL15 construct were treated either with 10 μM ACZ or DMSO for 24 hrs.
mbIL15 expression was determined by flow cytometry using two staining reagents: fluorochrome-conjugated anti-IL15 antibody as well as a recombinant protein comprised of extracellular domain of IL15Ra fused to human IgG1 Fc domain (IL15Ra-Fc). mbIL15+ cell frequency was determined based on co-staining with anti-IL15 and IL15Ra-Fc (identified as the IL15+IL15Ra-Fc+ double positive population).

[3] = tested on: cord blood-derived NK cells; experiment: Regulation of mbIL15 construct with ACZ in cord blood-derived NK cells (IL15Ra-Fc and anti-CD56 FACS); format: cell-based, human; conditions: DMSO overnight, regardless of donor
Experimental: One day prior to NK cell isolation as described in Example 8, feeder cells (K562 cells expressing 4-1BBL and mblL-21) were thawed in complete NK cell media (RPMI with Glutamax (ThermoFisher), 10% heat-inactivated fetal bovine serum (Gibco), 1× Penicillin/Streptomycin, 1 mM Sodium Pyruvate, 1×HEPES, 50 μM 2-Mercaptoethanol). On the day of NK cell isolation, 10×10^6 feeder cells were treated with mitomycin C to inhibit their proliferation and washed to remove excess drug. NK cells were added to the feeder cells at a 1:2 effector to target ratio in NK cell media with 200 U/mL recombinant human IL2 (rhIL2; PeproTech). NK cell cultures were expanded by replenishing cell cultures with NK cell media and rhIL2 every two days, and analyzed by FACS for NK cell expansion.
96-well non-coated tissue culture plates were incubated with 35 μg per mL RetroNectin (Takara Bio) in PBS for 2 h at 37° C. or overnight at 4° C. RetroNectin was removed and the plates washed with PBS. […]
NK cells from three different donors were isolated, expanded and transduced with BaEV-pseudotyped lentivirus containing either the IL15-292 construct or the IL15-293 construct. The titer of the IL15-292 lentivirus was 2.38×10^8 TU/mL while the titer for the IL15-293 lentivirus was 6.51×10^8 TU/mL (as measured by a Jurkat qPCR titer), and 4 μL lentivirus and 46 μL NK cell media were added to each well. […]

[4] = tested on: TIL-matched patient-derived xenografts (hPDX); experiment: Human PDX (hPDX) model with engineered matched TIL; format: in vivo, NSG mice
From the text: To evaluate the effect of regulated mbIL15 on the anti-tumor activity of tumor infiltrating lymphocytes (TIL), a human PDX (hPDX) model is used. […] TIL are transduced with BaEV-pseudotyped lentiviral vectors containing either the IL15-292 construct or the IL15-293 construct, as described in Example 6, or with BaEV-pseudotyped lentiviral empty vector (EV), and then optionally frozen. TIL-matched patient-derived xenografts (hPDX) from the tumor sample are established via subcutaneous implant into the right flank of NSG mice. Tumor growth is measured once or twice per week using calipers. On study start, tumors are measured, and mice are randomized and placed in cohorts based on similar mean tumor volume across all groups into new cages (N=8 for each group). […]
Group 1 receives untransduced TIL supplemented with recombinant human IL2 (hIL2) as benchmark control, and group 2 receives TIL transduced with constitutive mbIL15 (IL15-292). […] Blood (50 μL) was withdrawn from submandibular veins on pre-determined days. Red blood cells are lysed, stained with fluorochrome-conjugated antibodies against human CD45, CD3 and mouse CD45, and cells are analyzed by flow cytometry. Tumor growth is measured for up to approximately 90 days; endpoints include maximal caliper measurements as well as effects on animal health, such as tumor necrosis and decrease in body weight.

HL-60-luc = experiment: HL-60 animal model of acute myeloid leukemia with engineered NK cells; format: in vivo, NSG mice
Experimental: To evaluate the effect of regulated mbIL15 on the anti-tumor activity of NK cells, an HL-60 animal model of acute myeloid leukemia is used. Cord blood NK cells are transduced with BaEV-pseudotyped lentiviral vectors containing either the IL15-292 construct or the IL15-293 construct, as described in Example 9, or with BaEV-pseudotyped lentiviral empty vector (EV), and optionally frozen after transduction. HL-60 cells expressing luciferase (HL-60-luc) are injected intravenously (1×10^6/mouse) into NSG mice and tumor growth is measured once or twice per week by bioluminescence imaging measurement (total flux units in photons per second (p/s) after intraperitoneal injections of D-luciferin). On day 6, animals are randomized into new cages (N=8 for each group) when average tumor size reaches approximately 10^6 total p/s. […]
Group 1 receives NK cells engineered with EV as a negative control, and group 2 receives NK cells transduced with constitutive mbIL5 (construct IL15-292). […] Red blood cells are lysed, stained with fluorochrome-conjugated antibodies against human CD45, CD3 and mouse CD45, and cells are analyzed by flow cytometry. Tumor growth is measured up to approximately 30 days; endpoints include maximal total flux units (10^10) as well as effects on animal health such as hind-limb paralysis and decrease in body weight.

Row | Substance | T cell expansion at the lowest concentration tested (Human primary T cells; ACZ 0.3 μM) | maximum T cell expansion (Human primary T cells; ACZ 30, 10, 3 μM) | T cell survival/expansion without drug treatment (Human primary T cells; no ACZ) | EC50 (T cells [1]; read-out: EC50 of ACZ based on % IL15+ T Cells) | EC50 (T cells [1]; read-out: EC50 of ACZ based on MFI of IL15) | IL15 expression on T cells (T cells [2]) | MFI of regulated mbIL15 in TIL (TIL; 10 μM ACZ 24 hrs) | regulated mbIL15 expression in TIL (TIL; 10 μM ACZ 24 hrs) | MFI of regulated mbIL15 in TIL (TIL; DMSO 24 hrs) | regulated mbIL15 expression in TIL (TIL; DMSO 24 hrs) | regulated mbIL15 expression in NK cells [3] | tumor growth ([4]; group 3, TIL transduced with regulated mbIL15, 200 mg/kg ACZ daily PO) | tumor growth ([4]; group 4, TIL transduced with regulated mbIL15, vehicle daily) | tumor growth (HL-60-luc; group 3, NK cells transduced with regulated mbIL15, 200 mg/kg ACZ daily PO) | NK cell expansion and persistence compared to groups 1 and 4 (HL-60-luc; group 3, regulated mbIL15, 200 mg/kg ACZ daily PO) | T cell expansion (Human primary T cells; Empty vector (EV) transduced cells, 2 ng/mL exogenous IL15)
1 | IL15-293: ACZ-regulated mbIL15 construct, mbIL15 linked to CA2 (M1del, L156H) DRD (AA SEQ ID NO: 24) | 3.3 × | 9.5-11 × | 0.8 × | 290 nM | 650 nM | 11% | high | 42.5% | low | 17.1% | ≤ 10% | substantially regress | No tumor growth inhibition | regress substantially | higher expansion and persistence | –
2 | exogenous IL15: exogenous IL15 (2 ng/mL) added to control T cell cultures [reference compound] | – | – | – | – | – | – | – | – | – | – | – | – | – | – | – | 11 fold

Source: US11058725B2, “CA2 compositions and methods for tunable regulation” (Obsidian Therapeutics, Inc., priority 2019, dated 2021)
